Experimental data from patent US8293917B2, “Pyrazole compounds as CCR1 antagonists” (Boehringer Ingelheim International GmbH, priority 2008, dated 2012).

Target: T1, CCR1 (Homo sapiens, UniProt P32246)
T1 construct: host or cells: non-adherent cells
T1 sequence (P32246 1-355): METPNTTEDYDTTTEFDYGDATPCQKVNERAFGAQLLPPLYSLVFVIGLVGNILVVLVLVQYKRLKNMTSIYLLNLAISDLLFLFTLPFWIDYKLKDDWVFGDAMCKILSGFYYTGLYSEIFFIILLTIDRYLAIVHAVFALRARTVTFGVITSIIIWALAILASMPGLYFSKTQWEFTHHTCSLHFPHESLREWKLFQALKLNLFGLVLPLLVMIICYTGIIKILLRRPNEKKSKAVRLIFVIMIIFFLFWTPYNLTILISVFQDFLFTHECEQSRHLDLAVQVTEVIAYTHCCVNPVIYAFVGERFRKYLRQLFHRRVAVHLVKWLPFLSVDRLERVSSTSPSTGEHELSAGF
Assay: functional cellular assay measuring calcium flux in response to MIP1α in CCR1-transfected cells (Method A or Method B)
Format: cell-based
Settings: cells stably expressing recombinant CCR1 and G-alpha-16; MIP-1alpha added at EC80; method (A: FLIPR TETRA, B: FDSS6000) not stated per compound
Experimental: Compounds are assessed for the ability to block the interaction of CCR1 and its ligands in a functional cellular assay measuring calcium flux in response to MIP1α in CCR1-transfected cells.
Method A: Non-adherent cells purchased from Chemicon Corporation (HTS005C), stably expressing recombinant CCR1 and G-alpha-16 are grown in RPMI 1640 medium (Mediatech 10-080-CM) supplemented with 10% heat-inactivated FBS, 0.4 mg/mL Geneticin and penicillin/streptomycin. On the day of the assay, the cells are transferred to a beaker and dye-loaded in bulk using a Fluo-4 NW Calcium Assay Kit with probenecid (Invitrogen F36205) at 0.8E6 cells/mL for 1 hour at room temperature. After 1 hour, they are seeded in a 384-well tissue culture-treated plate at a density of 20,000 cells/well. Appropriately diluted test compound is added to the well to achieve a top concentration of 3,000 nM (diluted 3-fold with 10 doses total). The final concentration of DMSO is 1%. The buffer is HBSS (Invitrogen 14025) with 20 mM HEPES at pH 7.4. The cells are allowed to incubate 1 hour in the dark at room temperature. The plates are transferred to the FLIPR TETRA where MIP-1alpha in 1% BSA is added at the EC80 final concentration. Wells +/−MIP-1alpha containing diluted DMSO instead of compound serve as the controls. Intracellular calcium flux is recorded on the FLIPR TETRA, using excitation at 470/495 nm and emission at 515/575 nm. Data are analyzed using Activity Base software.
Method B: Non-adherent cells purchased from Chemicon Corporation (HTS005C), stably expressing recombinant CCR1 and G-alpha-16 are grown in RPMI 1640 medium (Mediatech 10-080-CM) supplemented with 10% FBS, 0.4 mg/mL Geneticin and penicillin/streptomycin. On the day of the assay, the cells are loaded with Calcium 4 dye (Molecular Devices R7448) with Probenecid (Invitrogen P346400) at 8E5 cells/mL for 1 hour at room temperature. After 1 hour, they are seeded in a 384-well tissue culture-treated plate at a density of 20,000 cells/well. Appropriately diluted test compound is added to the well to achieve a top concentration of 3,000 nM (diluted 4-fold with 10 doses total). The final concentration of DMSO is 1%. The buffer is HBSS (Invitrogen 14025) with 20 mM HEPES at pH 7.4. The cells incubate 30 minutes at 37 C and then 30 minutes at room temperature. The plates are transferred to the HAMAMATSU FDSS6000 where MIP-1alpha in 1% BSA is added at the EC80 final concentration. All plates must be read within 4 hours of the start of dye-loading. Wells +/−MIP-1alpha containing diluted DMSO instead of compound serve as the controls. Data are analyzed using Activity Base software.

Compound	IC50 [nM]
CCCC(NC(=O)c1cnn(-c2ccc(Cl)cc2)c1C)c1cncc(S(=O)(=O)C(C)C)c1 (stereo not shown) [1-(4-Chloro-phenyl)-5-methyl-1H-pyrazole-4-carboxylic acid {1-[5-(propane-2-sulfonyl)-pyridin-3-yl]-butyl}-amide]	72
CCCC(NC(=O)c1cnn(-c2ccc(Cl)cc2)c1C)c1ccc(S(=O)(=O)NCCO)nc1 (stereo not shown) [1-(4-Chloro-phenyl)-5-methyl-1H-pyrazole-4-carboxylic acid {1-[6-(2-hydroxy-ethylsulfamoyl)-pyridin-3-yl]-butyl}-amide]	97
CCCC(NC(=O)c1cnn(-c2ccc(Cl)cc2)c1C)c1ccc(S(=O)(=O)CCCO)nc1 (stereo not shown) [1-(4-Chloro-phenyl)-5-methyl-1H-pyrazole-4-carboxylic acid {1-[6-(3-hydroxy-propane-1-sulfonyl)-pyridin-3-yl]-butyl}-amide]	86
CCCC(NC(=O)c1cnn(-c2ccc(Cl)cc2)c1C)c1ccc(S(=O)(=O)NC2CCOCC2)nc1 (stereo not shown) [1-(4-Chloro-phenyl)-5-methyl-1H-pyrazole-4-carboxylic acid {1-[6-(tetrahydro-pyran-4-ylsulfamoyl)-pyridin-3-yl]-butyl}-amide]	41
CCC[C@H](NC(=O)c1cnn(-c2ccc(Cl)cc2)c1CNC)c1cccc(C(F)(F)F)c1 [1-(4-Chloro-phenyl)-5-methylaminomethyl-1H-pyrazole-4-carboxylic acid [(S)-1-(3-trifluoromethyl-phenyl)-butyl]-amide]	98
CCCC(NC(=O)c1cnn(-c2ccc(Cl)cc2)c1C)c1ccnc(S(=O)(=O)CCC(=O)OC)c1 (stereo not shown) [3-[4-(1-{[1-(4-Chloro-phenyl)-5-methyl-1H-pyrazole-4-carbonyl]-amino}-butyl)-pyridine-2-sulfonyl]-propionic acid methyl ester]	80
CCC[C@H](NC(=O)c1cnn(-c2ccc(Cl)cc2)c1CN)c1cccc(C(F)(F)F)c1 [5-Aminomethyl-1-(4-chloro-phenyl)-1H-pyrazole-4-carboxylic acid [(S)-1-(3-trifluoromethyl-phenyl)-butyl]-amide]	12
